Measurements: ChEMBL document CHEMBL1201862, “PubChem BioAssay data set” (2004)
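Tested at 5 concentrations; 48 h exposure; 96-well plates; endpoints linearly interpolated, else capped at highest concentration. GI50 = concentration required for 50% inhibition of growth.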 Activity calls are given as the source filed them. Rule as the data show it: active = GI50 up to about 1.1 µM and inactive = higher. Residues, ends and D or L forms follow the SMILES beside them.

Tests used:
Experiment in all cases: NCI-60 cell line screen, 48 h
[1] = test system: MDA-MB-231
[2] = test system: NCI/ADR-RES
[3] = test system: HCT-116
[4] = test system: Hs-578T
[5] = test system: HOP-62
[6] = test system: NCI-H460
[7] = test system: SK-MEL-2
[8] = test system: 786-0
[9] = test system: HOP-92
[10] = test system: IGROV-1
[11] = test system: SF-295
[12] = test system: PC-3
[13] = test system: CCRF-CEM
[14] = test system: Malme-3M
[15] = test system: OVCAR-3
[16] = test system: SK-MEL-28
[17] = test system: SN12C
[18] = test system: SK-MEL-5

Measured: GI50

Cc1occc1C(=S)Nc1ccc(Cl)c(C(=O)OC(C(C)C)C(C)C)c1
inactive: [1] 12.6 µM | [2] 9.98 µM | [3] 10.1 µM | [4] 17.6 µM | [5] 17.2 µM | [6] 13.6 µM | [7] 16.5 µM | [8] 13.7 µM | [9] 7.82 µM | [10] 15.2 µM | [11] 5.47 µM | [12] 7.46 µM | [13] 7.16 µM | [14] 12 µM | [15] 13.4 µM | [16] 12.5 µM | [17] 14.9 µM | [18] 14.6 µM

COc1ccc(-c2cc(-c3ccccc3)nc(N)n2)c(O)c1
inactive: [1] > 26.2 µM | [2] > 52 µM | [3] > 100 µM | [4] > 100 µM | [5] > 49.5 µM | [6] 5.04 µM | [7] 7.08 µM | [8] > 100 µM | [9] > 43 µM | [10] 10.6 µM | [11] > 86.1 µM | [12] 6.68 µM | [13] 4.59 µM | [14] > 100 µM | [15] > 49.5 µM | [16] > 83.4 µM | [17] > 25.3 µM | [18] 7.16 µM

COc1cc2c(cc1OC)C1C3CCCCC3CCN1CC2 (configuration not stated)
inactive: [1] > 100 µM | [2] > 100 µM | [3] 48.6 µM | [4] > 100 µM | [5] > 100 µM | [6] > 100 µM | [7] > 100 µM | [8] 88.5 µM | [9] > 100 µM | [10] > 100 µM | [11] 83.8 µM | [12] > 100 µM | [13] > 100 µM | [14] > 100 µM | [15] 79.4 µM | [16] > 100 µM | [17] 62.7 µM | [18] > 100 µM

CCCCCCCCCCCCCCCCCCNc1nc(=O)n(C2CC(O)C(COP(=O)(O)OCC3OC(n4ccc(N)nc4=O)C(O)C3O)O2)cc1F (configuration not stated)
inactive: [1] 27.7 µM | [2] 17.9 µM | [3] 9.35 µM | [4] > 100 µM | [5] 18.7 µM | [6] 4.5 µM | [7] > 100 µM | [8] 8.34 µM | [9] 31.1 µM | [10] 30.3 µM | [11] > 100 µM | [12] 28.6 µM | [13] > 100 µM | [14] 24.5 µM | [15] > 100 µM | [16] > 100 µM | [17] 27 µM | [18] > 100 µM

COc1ccc2c3c1OC1C34CCN(C)C(C2)C4=CC(I)C1(OC)OC (configuration not stated)
inactive: [1] 18.5 µM | [2] 41.5 µM | [3] 3.93 µM | [4] 37 µM | [5] 8.77 µM | [6] 13.5 µM | [7] 15.6 µM | [8] 4.15 µM | [9] 11.4 µM | [10] 8.71 µM | [11] 41.5 µM | [12] 10.2 µM | [13] 1.32 µM | [14] 7.21 µM | [15] 5.87 µM | [16] 12.1 µM | [17] 5.78 µM | [18] 12 µM

CC1(C)N=C(N)N=C(N)N1c1cccc(OCc2cccc([N+](=O)[O-])c2)c1
inactive: [1] > 53.8 µM | [2] > 100 µM | [3] 5.41 µM | [4] > 100 µM | [5] > 76 µM | [6] 1.6 µM | [7] > 64.3 µM | [8] 5.78 µM | [9] > 100 µM | [10] 7.87 µM | [11] > 55.7 µM | [12] 14.4 µM | [13] 5.4 µM | [14] > 53.1 µM | [15] 22.9 µM | [16] > 55.2 µM | [17] 9.98 µM | [18] 4.86 µM

CCC(C)C(NC(=O)C(CC(C)C)NC(=O)CNC(=O)C(NC(=O)C1CCCN1C(=O)C(CC(C)C)NC(=O)C(N)Cc1ccccc1)C(C)CC)C(=O)NC(CC(C)C)C(N)=O (configuration not stated) (H-FLPIGLIL-NH2; configuration not given here)
inactive: [1] > 75 µM | [2] > 75 µM | [3] > 75 µM | [4] > 75 µM | [5] > 75 µM | [7] > 75 µM | [8] > 75 µM | [9] > 75 µM | [10] > 75 µM | [11] > 75 µM | [12] > 75 µM | [13] > 75 µM | [14] > 75 µM | [15] > 75 µM | [16] > 75 µM | [17] > 75 µM | [18] > 75 µM

O=C([O-])Cc1ccccc1.[Na+] [SODIUM PHENYLACETATE]
inactive: [1] 174 µM | [2] 540 µM | [4] 385 µM | [5] 200 µM | [6] 342 µM | [7] > 2000 µM | [8] 1070 µM | [9] 359 µM | [10] 597 µM | [11] 843 µM | [12] > 2000 µM | [13] 671 µM | [14] 706 µM | [15] 550 µM | [16] 800 µM | [17] 23.9 µM | [18] 869 µM
